In ChEMBL document CHEMBL3430912, “GSK Tres Cantos Anti-Kinetoplastid Screening (TCAKS) Data”:

Experiments:
[1] = GSK_TCAKS: pIC50 HepG2 human cell line viability assay using luminiscence. […] Seeding density was checked to ensure that new mono-layers were not more than 50% confluent at the time of harvesting. Cell suspension was added to 500 mL of the same medium at a final density of 1.2 * 10^5 cells/mL. This cell suspension was dispensed (25 uL, 3000 cells per well) into 384-well clear-bottom plates using a Multidrop Combi dispenser. Prior to addition of the cell suspension, the screening compounds (250 nL) were pre-dispensed into the plates with an Echo liquid handler. Plates were incubated for 48 h at 37C, 5% CO2. After incubation, plates equilibrated at room temperature for 30 min before proceeding to develop the luminescent signal. The signal developer, CellTiter-Glo Reagent, was allowed to equilibrate at room temperature for 30 min and added to the plates (25uL per well) using a Multidrop Combi dispenser. Plates were left for 10 min at room temperature for stabilization and then read using a ViewLux.; assay type: toxicity, cell-based
NIH3T3 = assay: GSK_TCAKS: pIC50 NIH 3T3 cell line viability assay using luminiscence. Tissue culture surface treated assay plates (1536-well) were used. […] The 100% cells survival control was determined exposing the host-cells to a 0.5% DMSO concentration, whereas the 100% toxicity control was achieved by seeding the cells in presence of Amphotericin B at 50uM. Plates were incubated for four days at 37C, 5% CO2. The assay readout was developed by addition of 5uL of CellTiter-Glo Reagent following the manufacturer's instructions. Luminiscence was measured using a ViewLux.; assay type: functional, cell-based; conditions: Mus musculus, NIH3T3, 96 h
[2] = tested on: Trypanosoma brucei brucei; assay: GSK_TCAKS: pIC50 Trypanosoma brucei viability assay using fluorescence intensity. Assay plates (1536-well) were prepared by dispensing 25nL of compound solution per well using an Echo acoustic dispenser (Labcyte).; assay type: functional, organism-based; conditions: Lister 427, 2 h
Trypanosoma cruzi [3] = assay: GSK_TCAKS: pIC50 Trypanosoma cruzi viability assay using beta-GAL activity. This assay was run at single shot at 5uM compound concentration per well. The biological reagents consisted of NIH-3T3 host cells and trypomastigotes parasitic cells; both cell types were set to a 3.3 * 10^5 cells/mL dilution in assay DMEM by means of a CASY cell counter device using a 60um capillary. 6 uL of the mixture were dispensed per well (about 1 * 10^3 host-cells and 1 * 10^3 parasites) with a Multidrop Combi dispenser. […] In all wells, the percentage of DMSO never exceeded 0.5%. Plates incubated for four days at 37C, 5% CO2. The substrate used for the assay fluorescence intensity (FLINT) readout was resorufin-beta-D-galactopiranoside (Sigma-Aldrich) at 5uM per well. It was diluted in PBS supplemented with the soft detergent Igepal (Fluka).; assay type: functional, organism-based, Mus musculus; conditions: Tulahuen, NIH3T3
Trypanosoma cruzi [4] = assay: GSK_TCAKS: pIC50 Trypanosoma cruzi Imaging: Amastigotes/Cell. […] Cells were then washed once with PBS before infection. T. cruzi trypomastigotes, collected at days 5 to 8 after infection from LLC-MK2 parasite infected cultures, were allowed to swim out for 4h at 37C from a centrifuged pellet (2,500 rpm/10 min/room temperature). Trypomastigotes were then collected and counted in a CASY Cell Counter. Trypomastigotes, in supplemented DMEM, were added to H9c2 cultures in a multiplicity of infection of 1 and incubated for 18 h. Cells were washed once with PBS before incubation of the infected H9c2 monolayer with trypsin (Life-Technologies) to detach cells from the flask. Cells were counted in a CASY Cell Counter using a 150 um capillary and their density set at 5 * 10^4 cells per mL in supplemented assay DMEM. Infected H9c2 were dispensed into 384-well poly-lysine coated assay plates at 50uL per well using a Multidrop Combi dispenser. After seeding them, the plates were incubated at 37C, 5% CO2 for 72h. Cultures were then fixed and stained by addition of 50 uL of a solution containing 8% formaldehyde and 4 uM DRAQ5 DNA dye (BioStatus, UK) per well. […] Five images were collected per well for reliable statistical analysis. Automated image analysis was performed with a script developed on Acapella High Content Imaging and Analysis Software (PerkinElmer). Output: number of amastigotes per cell as infection level measurement.; assay type: functional, organism-based, Rattus norvegicus; conditions: H9c2, 4 h
Trypanosoma cruzi [5] = assay: (§1) GSK_TCAKS: pIC50 Trypanosoma cruzi Imaging: Infected Cells. […] Cells were then washed once with PBS before infection. T. cruzi trypomastigotes, collected at days 5 to 8 after infection from LLC-MK2 parasite infected cultures, were allowed to swim out for 4h at 37C from a centrifuged pellet (2,500 rpm/10 min/room temperature). Trypomastigotes were then collected and counted in a CASY Cell Counter. Trypomastigotes, in supplemented DMEM, were added to H9c2 cultures in a multiplicity of infection of 1 and incubated for 18 h. Cells were washed once with PBS before incubation of the infected H9c2 monolayer with trypsin (Life-Technologies) to detach cells from the flask. Cells were counted in a CASY Cell Counter using a 150 um capillary and their density set at 5 * 10^4 cells per mL in supplemented assay DMEM. Infected H9c2 were dispensed into 384-well poly-lysine coated assay plates at 50uL per well using a Multidrop Combi dispenser. After seeding them, the plates were incubated at 37C, 5% CO2 for 72h. Cultures were then fixed and stained by addition of 50 uL of a solution containing 8% formaldehyde and 4 uM DRAQ5 DNA dye (BioStatus, UK) per well. […] Five images were collected per well for reliable statistical analysis. Automated image analysis was performed with a script developed on Acapella High Content Imaging and Analysis Software (PerkinElmer). Output: percentage of infected cells per well as a second infection marker.; assay type: functional, organism-based, Rattus norvegicus; conditions: H9c2, 4 h
Trypanosoma cruzi [6] = assay: as §1, with “H2C9” for “Trypanosoma cruzi”, “H9c2 Host Cardiomyocytes.” for “Infected Cells.”, “Number” for “percentage”, “H9c2 Host Cardiomyocytes nuclei to determine drug-related cytotoxicity.” for “infected cells per well as a second infection marker.”; assay type: functional, organism-based, Rattus norvegicus; conditions: H9c2, 4 h
Leishmania donovani [7] = assay: GSK_TCAKS: pIC50 Leishmania donovani viability assay using fluorescence intensity. Assay plates (1536-well) were prepared by adding 30nL per well of compound. For single shot assay, the final compound concentration was 5uM. […] Briefly, eGFP LdBOB axenic amastigotes were harvested, fixed and counted in a CASY cell counter (Roche-Applied Science). A final concentration of 1.5 * 10^5 cells per well were prepared in amastigote media containing 500 U/mL penicillin/streptomycin (Invitrogen) and 6uL was dispensed to each experimental well using a Multidrop Combi dispenser (Thermo Scientific). 6uL of assay media was dispensed to control columns used as reference for 100% compound response. Following incubation for 72 h at 37C, 5% CO2, 2 uL of resazurin was added to each well at a final concentration of 0.5 mM in phosphate buffered saline (PBS) with IGEPAL (Sigma-Aldrich), 0.05% (v/v).; assay type: functional, organism-based
Leishmania donovani [8] = assay: GSK_TCAKS: pIC50 Leishmania donovani Imaging: Infected Macrophages. Assay plates (384-well) were prepared by adding 250nL of compound to each well. For single shot assay, the final compound concentration was 5 uM. […] Automated image analysis was performed with a script developed on Acapella High Content Imaging and Analysis Software (PerkinElmer). Output: Percent of infected macrophage cells were reported for each well.; assay type: functional, organism-based, Homo sapiens; conditions: THP-1
Leishmania donovani [9] = assay: GSK_TCAKS: pIC50 Leishmania donovani Imaging: THP-1 Host Macrophages. Assay plates (384-well) were prepared by adding 250nL of compound to each well. For single shot assay, the final compound concentration was 5 uM. […] Automated image analysis was performed with a script developed on Acapella High Content Imaging and Analysis Software (PerkinElmer). Output: THP-1 cell count were reported for each well.; assay type: functional, organism-based, Homo sapiens
Leishmania donovani [10] = assay: GSK_TCAKS: pIC50 Leishmania donovani Imaging: Amastigotes/Macrophages. Assay plates (384-well) were prepared by adding 250nL of compound to each well. For single shot assay, the final compound concentration was 5 uM. […] Automated image analysis was performed with a script developed on Acapella High Content Imaging and Analysis Software (PerkinElmer). Output: Average number of amastigotes per macrophage cell were reported for each well.; assay type: functional, organism-based, Homo sapiens; conditions: THP-1
[11] = biological target: Sterol 14-alpha demethylase (Trypanosoma cruzi (strain CL Brener), UniProt Q7Z1V1); assay: GSK_TCAKS: pIC50 CYP51 from Trypanosoma cruzi.; assay type: functional
[12] = tested on: Trypanosoma brucei brucei; assay: GSK_TCAKS: pIC50 Trypanosoma brucei viability assay using luminiscence. Assay plates (1536-well) were prepared. T. brucei cultures were harvested and counted in a CASY cell counter. A parasite suspension was prepared at a final concentration of 5 * 10^4 cells/mL in complete HMI9 medium and 6uL was dispensed to all wells containing compounds using a Multidrop Combi dispenser. 6uL of HMI9 media with 0.4% DMSO were dispensed to control columns. Plates were incubated for 24 h at 37C, 5% CO2 then tempered for 10 min at room temperature. ATP content was quantified by adding 4 uL of CellTiter-Glo Reagent (Promega) according to the manufacturer's instructions. Luminescence was measured using a ViewLux.; assay type: functional, organism-based; conditions: Lister 427, CASY

Chain of Sterol 14-alpha demethylase (Q7Z1V1 whole entry): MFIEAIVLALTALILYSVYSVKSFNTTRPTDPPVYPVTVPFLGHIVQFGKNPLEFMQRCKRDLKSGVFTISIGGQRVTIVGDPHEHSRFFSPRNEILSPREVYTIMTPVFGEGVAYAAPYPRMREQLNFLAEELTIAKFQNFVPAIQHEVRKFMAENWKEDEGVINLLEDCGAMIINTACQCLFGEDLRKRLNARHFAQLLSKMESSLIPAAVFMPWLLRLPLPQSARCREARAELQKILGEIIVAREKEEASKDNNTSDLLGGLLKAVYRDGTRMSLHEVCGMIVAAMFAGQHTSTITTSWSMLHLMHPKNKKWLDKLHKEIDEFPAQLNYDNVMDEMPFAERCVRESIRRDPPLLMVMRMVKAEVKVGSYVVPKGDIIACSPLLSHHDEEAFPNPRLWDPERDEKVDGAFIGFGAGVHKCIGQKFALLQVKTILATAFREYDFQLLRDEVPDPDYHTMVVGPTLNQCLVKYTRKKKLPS

SMILES	IC50 at 48 h [1] [µM]	IC50 (NIH3T3) [µM]	IC50 [2] [µM]	IC50 (Trypanosoma cruzi [3]) [µM]	IC50 (Trypanosoma cruzi [4]) [µM]	IC50 (Trypanosoma cruzi [5]) [µM]	IC50 (Trypanosoma cruzi [6]) [µM]	IC50 (Leishmania donovani [7]) [µM]	IC50 (Leishmania donovani [8]) [µM]	IC50 (Leishmania donovani [9]) [µM]	IC50 (Leishmania donovani [10]) [µM]	IC50 [11] [µM]	IC50 [12] [µM]
COc1cc(NC(=O)Nc2cccc(CNC(=O)OC3CCCCC3)c2)ccc1-c1cnco1	39.8	10	0.251	1	31.6	25.1	15.8	> 50.1	> 50.1	10	20	25.1	–
CCOc1ccc(NC(=O)C=Cc2ccc(CC)o2)cc1	79.4	31.6	15.8	2	15.8	25.1	> 50.1	20	50.1	20	25.1	> 100	–
CC(C)Nc1nccc(-c2c(-c3ccc(F)cc3)ncn2C2CCOCC2)n1	> 100	> 50.1	5.01	0.282	0.2	0.316	> 50.1	25.1	25.1	> 50.1	15.8	> 100	–
CN(C)c1ccc(-c2cc3nccnc3c(OC[C@H]3CCCNC3)n2)cn1	63.1	15.8	2	1.58	1.58	> 50.1	20	> 50.1	20	20	25.1	–	–
Cc1occc1C(=O)Nc1ccccc1C(=O)Nc1nccs1	> 100	–	0.398	> 50.1	31.6	> 50.1	> 50.1	> 50.1	> 50.1	> 50.1	> 50.1	> 100	0.501
O=C(O)[C@H]1C[C@@H]1c1ccc(-c2ccc(CN(CCc3ccccn3)C(=O)C3CCC3)cc2)cc1	> 100	–	0.631	> 50.1	31.6	31.6	> 50.1	25.1	> 50.1	> 50.1	> 50.1	20	0.794
COc1ccccc1C1CC(c2ccc(NS(C)(=O)=O)cc2)=NN1C(=O)c1cccs1 (stereo unspecified)	> 100	–	15.8	25.1	> 50.1	> 50.1	> 50.1	3.98	3.98	> 50.1	2.51	25.1	20
Cc1nnc(-c2nc(NCc3ccc(Cl)cc3)c3cccnc3c2O)[nH]1	15.8	–	0.631	0.631	1.26	0.794	25.1	2	0.501	6.31	0.501	15.8	0.794
CC1CN(Cc2ccc(C#N)cc2)CCN1c1ccc(NC(=O)c2ccccc2F)cc1 (stereo unspecified)	> 100	–	> 39.8	25.1	> 50.1	> 50.1	> 50.1	39.8	10	> 50.1	5.01	31.6	> 39.8
CC(C)C[C@H](NC(=O)c1csc(-c2cccs2)n1)C(=O)NC1(C#N)CC1	> 100	–	0.158	25.1	20	> 50.1	> 50.1	5.01	> 50.1	> 50.1	> 50.1	> 100	0.1
CCN(Cc1cccs1)C(=O)CSc1nnc(-c2ccc3c(c2)OCO3)o1	> 100	–	25.1	3.98	1.58	2.51	> 50.1	3.16	2	> 50.1	2	7.94	> 39.8
